The source made the active and inactive calls.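 Rule for the calls: active = half-maximal concentration for the rise in caspase light signal at or below ten times the top tested dose; inconclusive = flat fit between 30% and 70% activity, or unreliable curve fit; inactive = the rest.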 Some results are limits rather than exact numbers.

The term EC50 denotes the concentration that produces a half-maximal response.

The subject of the assay is MEF A1-2A-BIM cells, caspase 3/7 luminescence, 3 h. The assay can be described thus: caspase activation in A1-2A-BIM MEF cells, dose response, A1 inhibitor project, cell-based, luminescence, retest (AID 2765).
As to `Cc1cc(C)n(CCC(=O)N/N=C/c2ccc(Cl)c([N+](=O)[O-])c2)n1`, the EC50 was > 35 µM (inactive).

On to `CN(CC(=O)Nc1ccc(F)cc1)C(=O)c1ccccc1OCc1ccc(F)cc1`, for which the EC50 was > 35 µM (inactive).

Take `CCOCCOC(=O)c1[nH]c2c(c1C)C(=O)CC(c1cccs1)C2` (stereo not given): the EC50 was > 35 µM (inactive).

Take `COc1ccc(NS(=O)(=O)c2cc(NC(=O)c3ccc(Cl)cc3)ccc2N2CCOCC2)cc1`: the EC50 is > 35 µM (inactive).

For the compound `CC1(C)c2cc(O)ccc2OC1N1CCOCC1` (stereo not given), the EC50 was > 35 µM (inactive).

For `CCOC(=O)[C@@H]1[C@H]2COc3ccc(Br)cc3[C@H]2N2C(=O)N(c3ccc(Cl)cc3)C(=O)[C@@]12C`, the EC50 is > 35 µM (inactive).

`CCOc1ccccc1CNC(=O)Cn1nc(C)c2c(C)n(-c3ccc(C)cc3)nc2c1=O`: the EC50 was > 35 µM (inactive).

Regarding `Cc1cc(C)cc(NC(=O)CCN2CCCC2)c1`, the EC50 was > 35 µM (inactive).

As for `CCN(CC)c1ccc(C=NCCc2ccc(S(N)(=O)=O)cc2)cc1`, the EC50 is > 35 µM (inactive).

In the case of `Cc1c(C(=O)NCCN2C(=O)S/C(=C\c3cccs3)C2=O)cccc1[N+](=O)[O-]`, the EC50 was > 35 µM (inactive).

For `CCCCNC(=O)c1ccc(Cn2c(=S)[nH]c3c([nH]c4ccc(OC)cc43)c2=O)cc1`, the EC50 was 5.24 µM.

Take `CC1CCN(c2ccc3nnc(CCC(=O)NCc4ccco4)n3n2)CC1`: the EC50 was > 35 µM (inactive).

Consider `Cc1ccccc1Nc1nc(-c2sc(NC(=O)c3cccc(Cl)c3)nc2C)cs1`, for which the EC50 is > 35 µM (inactive).

On to `Cc1coc(NC(=O)CSc2nc(-c3ccc(Cl)cc3)cc(C(F)(F)F)c2C#N)n1`, for which the EC50 was > 35 µM (inactive).

In the case of `COc1ccc(CCNC(=O)C2=COCCO2)cc1`, the EC50 was > 35 µM (inactive).

Take `O=[N+]([O-])/C=C/c1cn(Cc2ccc(Cl)cc2)c2ccccc12`: the EC50 is 21.6 µM.

Turning to `CN(C)CCCN(C(=O)c1cc2cc([N+](=O)[O-])ccc2s1)c1nc2cc3c(cc2s1)OCCO3`, the EC50 is > 35 µM (inactive).

In the case of `CC[C@H]1CN2CCc3cc(OC)c(OC)cc3[C@@H]2C[C@@H]1C[C@H]1NCCc2cc(OC)c(OC)cc21`, the EC50 is > 35 µM (inactive).

With `COc1ccccc1C(=O)Nc1ccnn1C1CCN(Cc2cn(C)c3ccccc23)CC1`, the EC50 is > 35 µM (inactive).

Consider `CCCc1cc(=O)oc2cc(C)cc(OCC(=O)Nc3ccc(S(N)(=O)=O)cc3)c12`, for which the EC50 was > 35 µM (inactive).

For `CCOC(=O)c1c(C)[nH]c(C)c1C(=O)CSc1nc2ccccc2n1CCOC`, the EC50 was > 35 µM (inactive).

Regarding `COc1ccccc1CCC(=O)Nc1ccc(S(=O)(=O)Nc2nccs2)cc1`, the EC50 is > 35 µM (inactive).

Take `COc1ccc(OC)c(NC(=O)CSc2nnc(CNC(=O)COc3ccc(Cl)cc3)o2)c1`: the EC50 is > 35 µM (inactive).

As to `COc1ccccc1N1CCN(S(=O)(=O)CCNC(=O)c2cc(OC)c(OC)c(OC)c2)CC1`, the EC50 is > 35 µM (inactive).

Consider `Cc1nnc(SCC(=O)NN2C(=O)NC3(CCCCC3)C2=O)s1`, for which the EC50 is > 35 µM (inactive).

Take `CC(Oc1ccccc1)C(=O)N1CCN=C1SCc1ccccc1` (stereo not given): the EC50 is > 35 µM (inactive).

For `Cc1cccc(NC(=S)N(Cc2cccc(Br)c2)CC2CCC(C(=O)O)CC2)c1` (stereo not given), the EC50 was > 35 µM (inactive).

Turning to `COc1cccc(CN(CC(=O)NC2CCCC2)C(=O)c2csnn2)c1`, the EC50 is > 35 µM (inactive).

Take `COc1ccc(C(=O)Nc2ccc(NC(C)=O)cc2)cc1S(=O)(=O)N1CCCCC1C` (stereo not given): the EC50 was > 35 µM (inactive).

Turning to `Cc1cc(C)cc(COn2ccnc2)c1`, the EC50 is > 35 µM (inactive).

Regarding `O=C1/C(=C\c2c(NCCOCCO)nc3ccccn3c2=O)SC(=S)N1Cc1ccco1`, the EC50 is > 35 µM (inactive).

Turning to `CCOc1cccc(C2C(C(=O)c3ccc(C)o3)=C(O)C(=O)N2Cc2ccncc2)c1` (stereo not given), the EC50 was > 35 µM (inactive).

For `CCC(C)Nc1nnc(SCC(=O)c2c(N)n(C3CC3)c(=O)[nH]c2=O)s1` (stereo not given), the EC50 is > 35 µM (inactive).

With `Cc1cc(C)n(-c2ccc(NC(=O)C3CCN(Cc4ccc(C)o4)CC3)cc2)n1`, the EC50 is > 35 µM (inactive).

For the compound `COc1ccccc1-c1cn[nH]c1-c1ccc(OCc2ccccc2)cc1O`, the EC50 is > 35 µM (inactive).

Turning to `Cc1ccc(NC(=O)c2cc(N3C(=O)C=CC3=O)ccc2N2CCOCC2)cc1Cl`, the EC50 is > 35 µM (inactive).

As to `COc1ccc(S(=O)(=O)NC2CCCC2)cc1C(N)=O`, the EC50 is > 35 µM (inactive).

Consider `Cc1occc1-c1nnc(SCC(=O)NCCc2ccccc2)n1Cc1ccccc1`, for which the EC50 was > 35 µM (inactive).

As for `O=C(NCC1CCCO1)C1CCN(S(=O)(=O)c2ccc(Br)cc2)CC1` (stereo not given), the EC50 is > 35 µM (inactive).

As to `CCc1ccc(C2C3=C(CC(C)(C)CC3=O)Nc3c2c(=O)[nH]c2nc(C)nn32)cc1` (stereo not given), the EC50 was > 35 µM (inactive).

Turning to `CCN(CC)C(=S)SCC(=O)Nc1ccc(F)cc1`, the EC50 was > 35 µM (inactive).

For `CSc1nnc(-c2cc3c(-c4ccccc4)nn(C)c3s2)n1C`, the EC50 was > 35 µM (inactive).

Turning to `Cc1cc(NC(=O)COC(=O)C(Cc2ccccc2)NC(=O)c2ccco2)no1` (stereo not given), the EC50 is > 35 µM (inactive).

In the case of `CCCCc1ccc(S(=O)(=O)NC2CCS(=O)(=O)C2)cc1` (stereo not given), the EC50 is > 35 µM (inactive).

For `CCOC(=O)CCC(=O)Nc1ccc(S(=O)(=O)N2CCC(C)CC2)cc1`, the EC50 is > 35 µM (inactive).

Take `CCCOC(=O)c1[nH]c2c(c1C)C(=O)CC(c1cccs1)C2` (stereo not given): the EC50 is > 35 µM (inactive).

`O=C(Nc1ccc(Br)cn1)c1cccc2c1-c1ccccc1C2=O`: the EC50 is > 35 µM (inactive).

Consider `COc1ccc(NC(=O)c2ccco2)c(NC(=O)c2ccc([N+](=O)[O-])cc2)c1`, for which the EC50 was > 35 µM (inactive).

As to `Cc1ccc(C(O)(CCN2CCCCC2)c2ccccc2)cc1` (stereo not given), the EC50 was > 35 µM (inactive).

Consider `O=C1NC(=O)c2cc(NC(=O)C3CCCO3)ccc21` (stereo not given), for which the EC50 is > 35 µM (inactive).

For the compound `CC(C)[C@H]1CN=C2N(CCNC(=O)CCC3CCCCC3)[C@H](Cc3ccc(O)cc3)CN21`, the EC50 is > 35 µM (inactive).

Regarding `Cc1c(C(c2ccccc2O)c2c(C)n(C)n(-c3ccccc3)c2=O)c(=O)n(-c2ccccc2)n1C`, the EC50 was > 35 µM (inactive).

As to `CCSc1nc(NCCN(C)C)c2c3c(sc2n1)COC(C)(CC)C3` (stereo not given), the EC50 was > 35 µM (inactive).

Consider `CCOC(=O)c1cc(CC)sc1NC(=O)C1CC(=O)NN1Cc1ccccc1` (stereo not given), for which the EC50 was > 35 µM (inactive).

Take `CCOC(=O)c1c(NC(=O)C2C3C=CC(C3)C2C(=O)O)sc2c1CCCC2` (stereo not given): the EC50 was > 35 µM (inactive).

In the case of `O=[N+]([O-])c1ccc(CN2CCOCCOCCOCC2)cc1`, the EC50 was > 35 µM (inactive).

With `Cc1noc(NS(=O)(=O)c2ccc(NC(=O)c3ccccc3NS(=O)(=O)c3ccc(F)cc3)cc2)c1C`, the EC50 was > 35 µM (inactive).

`COc1cc(/C=C(/C#N)c2nc3ccccc3[nH]2)ccc1OCC(=O)Nc1ccccc1C`: the EC50 is 4.3 µM.

With `Cc1ccc(Cl)cc1NC(=O)CC1NC2CCCCC2NC1=O` (stereo not given), the EC50 is > 35 µM (inactive).

Take `COC(=O)C(CO)Nc1ncnc2onc(-c3ccc(F)cc3)c12` (stereo not given): the EC50 is > 35 µM (inactive).
